# Assay results as given in ChEMBL document CHEMBL3885861, “Open TG-GATES”.
# Organism: Rattus norvegicus
# Assay: Open TG-GATES - Regimen: Daily Repeat
# Format: toxicity, organism-based, Sprague-Dawley
# Design: regimen Daily Repeat, gender Male, age 6 weeks
# Conditions: in vivo, po, 0 mg/kg, route gavage, dose level Control; for APTT / Bas / Eos / Fbg / Hb / Ht / Lym / MCH / MCHC / MCV / Mono / Neu / PT / Plat / RBC / Ret / WBC: tissue Blood; for KIDNEY_L / KIDNEY_R / KIDNEY_TOTAL: tissue Kidney; for LIVER: tissue Liver; for A/G / ALP / ALT / AST / BUN / CRE / Ca / Cl / DBIL / GLC / IP / K / LDH / Na / PL / RALB / TBIL / TC / TG / TP / gamma-GTP: tissue Plasma
structure (smiles),measurement,setting,value
CCc1oc2ccccc2c1C(=O)c1cc(I)c(O)c(I)c1 [BENZIODARONE],TERMINAL_BW,"72 h, time 3 day",239.1 g
same,APTT,"72 h, time 3 day",17.3 s
same,Bas,"72 h, time 3 day",0%
same,Eos,"72 h, time 3 day",0.8%
same,Fbg,"72 h, time 3 day",216.8 mg/dL
same,Hb,"72 h, time 3 day",14.1 g/dL
same,Ht,"72 h, time 3 day",41.9%
same,Lym,"72 h, time 3 day",76.2%
same,MCH,"72 h, time 3 day",21.4 pg
same,MCHC,"72 h, time 3 day",33.7%
same,MCV,"72 h, time 3 day",63.6 fL
same,Mono,"72 h, time 3 day",7%
same,Neu,"72 h, time 3 day",15.6%
same,PT,"72 h, time 3 day",11.7 s
same,Plat,"72 h, time 3 day",125.7 x10_4/uL
same,RBC,"72 h, time 3 day",658.4 x10_4/ul
same,Ret,"72 h, time 3 day",6.2%
same,WBC,"72 h, time 3 day",99.6 x10_2/uL
same,KIDNEY_L,"72 h, time 3 day",1.1 g
same,KIDNEY_R,"72 h, time 3 day",1.1 g
same,KIDNEY_TOTAL,"72 h, time 3 day",2.2 g
same,LIVER,"72 h, time 3 day",11.6 g
same,A/G,"72 h, time 3 day",1.8
same,ALP,"72 h, time 3 day",882.4 IU/L
same,ALT,"72 h, time 3 day",39 IU/L
same,AST,"72 h, time 3 day",62.6 IU/L
same,BUN,"72 h, time 3 day",17.4 mg/dL
same,CRE,"72 h, time 3 day",0.5 mg/dL
same,Ca,"72 h, time 3 day",10.7 mg/dL
same,Cl,"72 h, time 3 day",104.6 meq/L
same,DBIL,"72 h, time 3 day",0.014 mg/dL
same,GLC,"72 h, time 3 day",203.2 mg/dL
same,IP,"72 h, time 3 day",7.2 mg/dL
same,K,"72 h, time 3 day",4.7 meq/L
same,LDH,"72 h, time 3 day",79.6 IU/L
same,Na,"72 h, time 3 day",141 meq/L
same,PL,"72 h, time 3 day",147.4 mg/dL
same,RALB,"72 h, time 3 day",3.7 g/dL
same,TBIL,"72 h, time 3 day",0.3 mg/dL
same,TC,"72 h, time 3 day",75.4 mg/dL
same,TG,"72 h, time 3 day",103.6 mg/dL
same,TP,"72 h, time 3 day",5.7 g/dL
same,gamma-GTP,"72 h, time 3 day",1.2 IU/L
same,TERMINAL_BW,"[…], time 7 day",272.7 g
same,TERMINAL_BW,"[…], time 14 day",335.3 g
same,TERMINAL_BW,"[…], time 28 day",397 g
same,APTT,"[…], time 7 day",16.8 s
same,Bas,"[…], time 7 day",0%
same,Eos,"[…], time 7 day",1%
same,Fbg,"[…], time 7 day",220 mg/dL
same,Hb,"[…], time 7 day",14.2 g/dL
same,Ht,"[…], time 7 day",41.6%
same,Lym,"[…], time 7 day",77.8%
same,MCH,"[…], time 7 day",21.4 pg
same,MCHC,"[…], time 7 day",34.1%
same,MCV,"[…], time 7 day",62.8 fL
same,Mono,"[…], time 7 day",7.2%
same,Neu,"[…], time 7 day",14.2%
same,PT,"[…], time 7 day",11.5 s
same,Plat,"[…], time 7 day",125.2 x10_4/uL
same,RBC,"[…], time 7 day",662.2 x10_4/ul
same,Ret,"[…], time 7 day",4.5%
same,WBC,"[…], time 7 day",108.6 x10_2/uL
same,APTT,"[…], time 14 day",17.1 s
same,Bas,"[…], time 14 day",0%
same,Eos,"[…], time 14 day",1%
same,Fbg,"[…], time 14 day",220.6 mg/dL
same,Hb,"[…], time 14 day",14.2 g/dL
same,Ht,"[…], time 14 day",41.9%
same,Lym,"[…], time 14 day",80.8%
same,MCH,"[…], time 14 day",20.9 pg
same,MCHC,"[…], time 14 day",34%
same,MCV,"[…], time 14 day",61.5 fL
same,Mono,"[…], time 14 day",6%
same,Neu,"[…], time 14 day",12.6%
same,PT,"[…], time 14 day",11.5 s
same,Plat,"[…], time 14 day",115.3 x10_4/uL
same,RBC,"[…], time 14 day",683.2 x10_4/ul
same,Ret,"[…], time 14 day",3.1%
same,WBC,"[…], time 14 day",110 x10_2/uL
same,APTT,"[…], time 28 day",17.9 s
same,Bas,"[…], time 28 day",0%
same,Eos,"[…], time 28 day",1.6%
same,Fbg,"[…], time 28 day",215.8 mg/dL
same,Hb,"[…], time 28 day",15.8 g/dL
same,Ht,"[…], time 28 day",46.8%
same,Lym,"[…], time 28 day",80%
same,MCH,"[…], time 28 day",19.5 pg
same,MCHC,"[…], time 28 day",33.7%
same,MCV,"[…], time 28 day",57.7 fL
same,Mono,"[…], time 28 day",5.4%
same,Neu,"[…], time 28 day",13.4%
same,PT,"[…], time 28 day",11.9 s
same,Plat,"[…], time 28 day",117.3 x10_4/uL
same,RBC,"[…], time 28 day",812.6 x10_4/ul
same,Ret,"[…], time 28 day",3.1%
same,WBC,"[…], time 28 day",150.6 x10_2/uL
same,KIDNEY_L,"[…], time 7 day",1.1 g
same,KIDNEY_R,"[…], time 7 day",1.2 g
same,KIDNEY_TOTAL,"[…], time 7 day",2.3 g
same,KIDNEY_L,"[…], time 14 day",1.3 g
same,KIDNEY_R,"[…], time 14 day",1.3 g
same,KIDNEY_TOTAL,"[…], time 14 day",2.6 g
same,KIDNEY_L,"[…], time 28 day",1.4 g
same,KIDNEY_R,"[…], time 28 day",1.4 g
same,KIDNEY_TOTAL,"[…], time 28 day",2.9 g
same,LIVER,"[…], time 7 day",12.8 g
same,LIVER,"[…], time 14 day",15.1 g
same,LIVER,"[…], time 28 day",15.6 g
same,A/G,"[…], time 7 day",1.7
same,ALP,"[…], time 7 day",916.8 IU/L
same,ALT,"[…], time 7 day",36 IU/L
same,AST,"[…], time 7 day",62.8 IU/L
same,BUN,"[…], time 7 day",19.2 mg/dL
same,CRE,"[…], time 7 day",0.5 mg/dL
same,Ca,"[…], time 7 day",10.6 mg/dL
same,Cl,"[…], time 7 day",104.6 meq/L
same,DBIL,"[…], time 7 day",0.048 mg/dL
same,GLC,"[…], time 7 day",192 mg/dL
same,IP,"[…], time 7 day",6.9 mg/dL
same,K,"[…], time 7 day",4.9 meq/L
same,LDH,"[…], time 7 day",86 IU/L
same,Na,"[…], time 7 day",139.6 meq/L
same,PL,"[…], time 7 day",141.8 mg/dL
same,RALB,"[…], time 7 day",3.6 g/dL
same,TBIL,"[…], time 7 day",0.3 mg/dL
same,TC,"[…], time 7 day",65 mg/dL
same,TG,"[…], time 7 day",114.2 mg/dL
same,TP,"[…], time 7 day",5.7 g/dL
same,gamma-GTP,"[…], time 7 day",1.8 IU/L
same,A/G,"[…], time 14 day",1.6
same,ALP,"[…], time 14 day",789.8 IU/L
same,ALT,"[…], time 14 day",32.2 IU/L
same,AST,"[…], time 14 day",63.2 IU/L
same,BUN,"[…], time 14 day",19.6 mg/dL
same,CRE,"[…], time 14 day",0.5 mg/dL
same,Ca,"[…], time 14 day",10.5 mg/dL
same,Cl,"[…], time 14 day",104.4 meq/L
same,DBIL,"[…], time 14 day",0 mg/dL
same,GLC,"[…], time 14 day",201 mg/dL
same,IP,"[…], time 14 day",6.7 mg/dL
same,K,"[…], time 14 day",4.9 meq/L
same,LDH,"[…], time 14 day",97.2 IU/L
same,Na,"[…], time 14 day",140.6 meq/L
same,PL,"[…], time 14 day",149 mg/dL
same,RALB,"[…], time 14 day",3.7 g/dL
same,TBIL,"[…], time 14 day",0.3 mg/dL
same,TC,"[…], time 14 day",72.4 mg/dL
same,TG,"[…], time 14 day",152 mg/dL
same,TP,"[…], time 14 day",6 g/dL
same,gamma-GTP,"[…], time 14 day",2 IU/L
same,A/G,"[…], time 28 day",1.5
same,ALP,"[…], time 28 day",606.6 IU/L
same,ALT,"[…], time 28 day",27 IU/L
same,AST,"[…], time 28 day",57 IU/L
same,BUN,"[…], time 28 day",19.8 mg/dL
same,CRE,"[…], time 28 day",0.6 mg/dL
same,Ca,"[…], time 28 day",10.6 mg/dL
same,Cl,"[…], time 28 day",105.6 meq/L
same,DBIL,"[…], time 28 day",0.04 mg/dL
same,GLC,"[…], time 28 day",200 mg/dL
same,IP,"[…], time 28 day",5.7 mg/dL
same,K,"[…], time 28 day",4.5 meq/L
same,LDH,"[…], time 28 day",79 IU/L
same,Na,"[…], time 28 day",140 meq/L
same,PL,"[…], time 28 day",135 mg/dL
same,RALB,"[…], time 28 day",3.7 g/dL
same,TBIL,"[…], time 28 day",0.3 mg/dL
same,TC,"[…], time 28 day",58 mg/dL
same,TG,"[…], time 28 day",164.8 mg/dL
same,TP,"[…], time 28 day",6.2 g/dL
same,gamma-GTP,"[…], time 28 day",2.2 IU/L
